Data taken from US10329303B2, “Heterocyclic inhibitors of monocarboxylate transporter” (THE SCRIPPS RESEARCH INSTITUTE, priority 2015, dated 2019).

System: Raji (Burkitt's) lymphoma cells
Experiment: MTT assay for 4-day viability of Raji (Burkitt's) lymphoma cells
Format: cell-based
Details: Homo sapiens, 96 h, Raji cells (highly express MCT1), read-out: approximate potency (EC50)
Excerpt: Specific Examples 1-52 of compounds of the invention, with estimated EC50 values determined using an MTT assay for 4-day viability of Raji (Burkitt's) lymphoma cells, a cell line known to highly express MCT1 and to be sensitive to small molecule MCT inhibitors,^4 are shown in Table 2. Assay protocols follow those described in the literature.^4 Other assays that are not described here but that are standard in the field, such as an assay for competitive inhibition of transport of radiolabeled lactic acid, an MCT substrate, may also be useful in establishing mechanism of action of these compounds.

Row | Compound | EC50
1 | Cc1n[nH]c(C)c1Cc1sc2c(c1-c1cc(F)c(F)c(CO)c1)c(=O)n(C)c(=O)n2CC(C)C [Example 5, 5-(3,4-difluoro-5-(hydroxymethyl)phenyl)-6-((3,5-dimethyl-1H-pyrazol-4-yl)methyl)-1-isobutyl-3-methylthieno[2,3-d]pyrimidine-2,4(1H,3H)-dione] | 160 nM
2 | CC(C)Cc1nn(C)c(=O)c2c(-c3cccc(CO)c3)n(Cc3cccc4ccccc34)cc12 [Example 31, 7-(3-(hydroxymethyl)phenyl)-4-isobutyl-2-methyl-6-(naphthalen-1-ylmethyl)-2,6-dihydro-1H-pyrrolo[3,4-d]pyridazin-1-one] | 100 nM
3 | Cc1n[nH]c(C)c1Cn1cc2c(CC(C)C)nn(C)c(=O)c2c1-c1cccc(CO)c1 [Example 43, 6-((3,5-dimethyl-1H-pyrazol-4-yl)methyl)-7-(3-(hydroxymethyl)phenyl)-4-isobutyl-2-methyl-2,6-dihydro-1H-pyrrolo[3,4-d]pyridazin-1-one] | 500 nM
4 | Cc1n[nH]c(C)c1Cc1sc2c(c1-c1cccc(CO)c1)c(=O)n(C1CC1)c(=O)n2CC(C)C [Example 24, 3-cyclopropyl-6-((3,5-dimethyl-1H-pyrazol-4-yl)methyl)-5-(3-(hydroxymethyl)phenyl)-1-isobutylthieno[2,3-d]pyrimidine-2,4(1H,3H)-dione] | 1000 nM
5 | Cc1n[nH]c(C)c1Cc1sc2c(c1-c1ccnc(CO)c1)c(=O)n(C)c(=O)n2CC(C)C [Example 10, 6-((3,5-dimethyl-1H-pyrazol-4-yl)methyl)-5-(2-(hydroxymethyl)pyridin-4-yl)-1-isobutyl-3-methylthieno[2,3-d]pyrimidine-2,4(1H,3H)-dione] | 90 nM
6 | CC(C)Cc1nn(C)c(=O)c2c(-c3cccc(CO)c3)n(Cc3cnc(Cl)c4ccccc34)cc12 [Example 47, 6-((1-chloroisoquinolin-4-yl)methyl)-7-(3-(hydroxymethyl)phenyl)-4-isobutyl-2-methyl-2,6-dihydro-1H-pyrrolo[3,4-d]pyridazin-1-one] | 1000 to 10000 nM
7 | CC(C)Cc1nn(C)c(=O)c2c(-c3cccc(CO)c3)n(CCOc3ccccc3Cl)cc12 [Example 48, 6-(2-(2-chlorophenoxy)ethyl)-7-(3-(hydroxymethyl)phenyl)-4-isobutyl-2-methyl-2,6-dihydro-1H-pyrrolo[3,4-d]pyridazin-1-one] | 1000 to 10000 nM
8 | Cc1n[nH]c(C)c1Cc1sc2c(c1-c1cc(F)c(F)c(CO)c1)c(=O)n(C1CC1)c(=O)n2CC(C)C [Example 18, 3-cyclopropyl-5-(3,4-difluoro-5-(hydroxymethyl)phenyl)-6-((3,5-dimethyl-1H-pyrazol-4-yl)methyl)-1-isobutylthieno[2,3-d]pyrimidine-2,4(1H,3H)-dione] | 900 nM
9 | CC(C)Cc1nn(C)c(=O)c2c(-c3ccc(C(O)C(F)(F)F)s3)n(Cc3cccc4ccccc34)cc12 (stereo not shown) [Example 39, 4-isobutyl-2-methyl-6-(naphthalen-1-ylmethyl)-7-(5-(2,2,2-trifluoro-1-hydroxyethyl)thiophen-2-yl)-2,6-dihydro-1H-pyrrolo[3,4-d]pyridazin-1-one] | 90 nM
10 | CC(C)Cc1nn(C)c(=O)c2c(-c3cccc(CO)c3)n(Cc3cc(Cl)nc4ccccc34)cc12 [Example 46, 6-((2-chloroquinolin-4-yl)methyl)-7-(3-(hydroxymethyl)phenyl)-4-isobutyl-2-methyl-2,6-dihydro-1H-pyrrolo[3,4-d]pyridazin-1-one] | 1000 to 10000 nM
11 | Cc1n[nH]c(C)c1Cc1sc2c(c1-c1c(F)cc(F)c(CO)c1F)c(=O)n(C)c(=O)n2CC(C)C [Example 3, 6-((3,5-dimethyl-1H-pyrazol-4-yl)methyl)-1-isobutyl-3-methyl-5-(2,4,6-trifluoro-3-(hydroxymethyl)phenyl)thieno[2,3-d]pyrimidine-2,4(1H,3H)-dione] | 1000 to 10000 nM
12 | CC(C)Cc1nn(C)c(=O)c2c(-c3csc(C(O)C(F)(F)F)n3)n(Cc3cccc4ccccc34)cc12 (stereo not shown) [Example 37, 4-isobutyl-2-methyl-6-(naphthalen-1-ylmethyl)-7-(2-(2,2,2-trifluoro-1-hydroxyethyl)thiazol-4-yl)-2,6-dihydro-1H-pyrrolo[3,4-d]pyridazin-1-one] | 100 nM
13 | Cc1n[nH]c(C)c1Cn1cc2c(CC(C)C)nn(C)c(=O)c2c1-c1cc(CO)ccc1F [Example 44, 6-((3,5-dimethyl-1H-pyrazol-4-yl)methyl)-7-(2-fluoro-5-(hydroxymethyl)phenyl)-4-isobutyl-2-methyl-2,6-dihydro-1H-pyrrolo[3,4-d]pyridazin-1-one] | 200 nM
14 | Cc1cc(CO)c(F)c(-c2c(Cc3c(C)n[nH]c3C)sc3c2c(=O)n(C)c(=O)n3CC(C)C)c1 [Example 2, 6-((3,5-dimethyl-1H-pyrazol-4-yl)methyl)-5-(2-fluoro-3-(hydroxymethyl)-5-methylphenyl)-1-isobutyl-3-methylthieno[2,3-d]pyrimidine-2,4(1H,3H)-dione] | 100 nM
15 | CC(C)Cc1nn(C)c(=O)c2c(-c3cc(CO)ccc3F)n(Cc3ccc(-c4ccccc4)cc3)cc12 [Example 41, 6-([1,1′-biphenyl]-4-ylmethyl)-7-(2-fluoro-5-(hydroxymethyl)phenyl)-4-isobutyl-2-methyl-2,6-dihydro-1H-pyrrolo[3,4-d]pyridazin-1-one] | 800 nM
16 | Cc1cc(CO)c(F)c(-c2c(Cc3c(C)n[nH]c3C)sc3c2c(=O)n(C2CC2)c(=O)n3CC(C)C)c1 [Example 17, 3-cyclopropyl-6-((3,5-dimethyl-1H-pyrazol-4-yl)methyl)-5-(2-fluoro-3-(hydroxymethyl)-5-methylphenyl)-1-isobutylthieno[2,3-d]pyrimidine-2,4(1H,3H)-dione] | 100 nM

Stronger by EC50, values ahead:

Row | EC50 | Compound
17 | < 20 nM | Cc1n[nH]c(C)c1Cc1sc2c(c1-c1cccc(CO)c1)c(=O)n(C)c(=O)n2CC(C)C [Example 15, 6-((3,5-dimethyl-1H-pyrazol-4-yl)methyl)-5-(3-(hydroxymethyl)phenyl)-1-isobutyl-3-methylthieno[2,3-d]pyrimidine-2,4(1H,3H)-dione]
18 | 34 nM | Cc1n[nH]c(C)c1Cc1sc2c(c1-c1cncc(C(O)C(F)(F)F)c1)c(=O)n(C)c(=O)n2CC(C)C (stereo not shown) [Example 8, 6-((3,5-dimethyl-1H-pyrazol-4-yl)methyl)-1-isobutyl-3-methyl-5-(5-(2,2,2-trifluoro-1-hydroxyethyl)pyridin-3-yl)thieno[2,3-d]pyrimidine-2,4(1H,3H)-dione]
19 | < 20 nM | Cc1n[nH]c(C)c1Cc1sc2c(c1-c1cccc(C(O)C(F)(F)F)c1)c(=O)n(C)c(=O)n2CC(C)C (stereo not shown) [Example 14, 6-((3,5-dimethyl-1H-pyrazol-4-yl)methyl)-1-isobutyl-3-methyl-5-(3-(2,2,2-trifluoro-1-hydroxyethyl)phenyl)thieno[2,3-d]pyrimidine-2,4(1H,3H)-dione]
20 | ≤ 20 nM | Cc1n[nH]c(C)c1Cn1cc2c(CC(C)C)nn(C)c(=O)c2c1-c1cccc(C(O)C(F)(F)F)c1 (stereo not shown) [Example 45, 6-((3,5-dimethyl-1H-pyrazol-4-yl)methyl)-4-isobutyl-2-methyl-7-(3-(2,2,2-trifluoro-1-hydroxyethyl)phenyl)-2,6-dihydro-1H-pyrrolo[3,4-d]pyridazin-1-one]
21 | 50 nM | CC(C)Cc1nn(C)c(=O)c2c(-c3cccc(C(O)C(F)(F)F)c3)n(Cc3cccc4ccccc34)cc12 (stereo not shown) [Example 40, 4-isobutyl-2-methyl-6-(naphthalen-1-ylmethyl)-7-(3-(2,2,2-trifluoro-1-hydroxyethyl)phenyl)-2,6-dihydro-1H-pyrrolo[3,4-d]pyridazin-1-one]
22 | 80 nM | CC(C)Cc1nn(C)c(=O)c2c(-c3ccc(F)c(CO)c3F)n(Cc3cccc4ccccc34)cc12 [Example 27, 7-(2,4-difluoro-3-(hydroxymethyl)phenyl)-4-isobutyl-2-methyl-6-(naphthalen-1-ylmethyl)-2,6-dihydro-1H-pyrrolo[3,4-d]pyridazin-1-one]
23 | 25 nM | Cc1n[nH]c(C)c1Cc1sc2c(c1-c1cc(F)cc(CO)c1)c(=O)n(C)c(=O)n2CC(C)C [Example 11, 6-((3,5-dimethyl-1H-pyrazol-4-yl)methyl)-5-(3-fluoro-5-(hydroxymethyl)phenyl)-1-isobutyl-3-methylthieno[2,3-d]pyrimidine-2,4(1H,3H)-dione]
24 | ≤ 20 nM | Cc1n[nH]c(C)c1Cc1sc2c(c1-c1ccc(F)c(CO)c1F)c(=O)n(C)c(=O)n2CC(C)C [Example 7, 5-(2,4-difluoro-3-(hydroxymethyl)phenyl)-6-((3,5-dimethyl-1H-pyrazol-4-yl)methyl)-1-isobutyl-3-methylthieno[2,3-d]pyrimidine-2,4(1H,3H)-dione]
25 | 40 nM | CC(C)Cc1nn(C)c(=O)c2c(-c3cc(CO)ccc3F)n(Cc3cccc4ccccc34)cc12 [Example 28, 7-(2-fluoro-5-(hydroxymethyl)phenyl)-4-isobutyl-2-methyl-6-(naphthalen-1-ylmethyl)-2,6-dihydro-1H-pyrrolo[3,4-d]pyridazin-1-one]
26 | 70 nM | CC(C)Cc1nn(C)c(=O)c2c(-c3csc(C(C)O)c3)n(Cc3cccc4ccccc34)cc12 (stereo not shown) [Example 33, 7-(5-(1-hydroxyethyl)thiophen-3-yl)-4-isobutyl-2-methyl-6-(naphthalen-1-ylmethyl)-2,6-dihydro-1H-pyrrolo[3,4-d]pyridazin-1-one]
27 | ≤ 20 nM | Cc1n[nH]c(C)c1Cc1sc2c(c1-c1cc(CO)ccc1F)c(=O)n(C1CC1)c(=O)n2CC(C)C [Example 22, 3-cyclopropyl-6-((3,5-dimethyl-1H-pyrazol-4-yl)methyl)-5-(2-fluoro-5-(hydroxymethyl)phenyl)-1-isobutylthieno[2,3-d]pyrimidine-2,4(1H,3H)-dione]
28 | 75 nM | Cc1n[nH]c(C)c1Cc1sc2c(c1-c1cncc(CO)c1)c(=O)n(C)c(=O)n2CC(C)C [Example 12, 6-((3,5-dimethyl-1H-pyrazol-4-yl)methyl)-5-(5-(hydroxymethyl)pyridin-3-yl)-1-isobutyl-3-methylthieno[2,3-d]pyrimidine-2,4(1H,3H)-dione]
